According to PMC3889502, “Inhibitory effects of monoterpenes on human TRPA1 and the structural basis of their activity” (The Journal of Physiological Sciences : JPS, 2013):
“Also recorded” adds a separate entry of the source. One block for each compound: values may come before it.

How the values were obtained:
hTRPA1 [1] = target: T1, hTRPA1 (Homo sapiens, UniProt O75762); assay: Ca2+-imaging (fura-2): activation by test compounds, normalized to menthol; type: cell-based; settings: test compound 1 mM; HEK293T cells expressing hTRPA1
T1 construct: Full-length hTRPA1 was obtained from Life Technologies (Carlsbad, CA); host or cells: HEK293T
T1 sequence (O75762 whole entry): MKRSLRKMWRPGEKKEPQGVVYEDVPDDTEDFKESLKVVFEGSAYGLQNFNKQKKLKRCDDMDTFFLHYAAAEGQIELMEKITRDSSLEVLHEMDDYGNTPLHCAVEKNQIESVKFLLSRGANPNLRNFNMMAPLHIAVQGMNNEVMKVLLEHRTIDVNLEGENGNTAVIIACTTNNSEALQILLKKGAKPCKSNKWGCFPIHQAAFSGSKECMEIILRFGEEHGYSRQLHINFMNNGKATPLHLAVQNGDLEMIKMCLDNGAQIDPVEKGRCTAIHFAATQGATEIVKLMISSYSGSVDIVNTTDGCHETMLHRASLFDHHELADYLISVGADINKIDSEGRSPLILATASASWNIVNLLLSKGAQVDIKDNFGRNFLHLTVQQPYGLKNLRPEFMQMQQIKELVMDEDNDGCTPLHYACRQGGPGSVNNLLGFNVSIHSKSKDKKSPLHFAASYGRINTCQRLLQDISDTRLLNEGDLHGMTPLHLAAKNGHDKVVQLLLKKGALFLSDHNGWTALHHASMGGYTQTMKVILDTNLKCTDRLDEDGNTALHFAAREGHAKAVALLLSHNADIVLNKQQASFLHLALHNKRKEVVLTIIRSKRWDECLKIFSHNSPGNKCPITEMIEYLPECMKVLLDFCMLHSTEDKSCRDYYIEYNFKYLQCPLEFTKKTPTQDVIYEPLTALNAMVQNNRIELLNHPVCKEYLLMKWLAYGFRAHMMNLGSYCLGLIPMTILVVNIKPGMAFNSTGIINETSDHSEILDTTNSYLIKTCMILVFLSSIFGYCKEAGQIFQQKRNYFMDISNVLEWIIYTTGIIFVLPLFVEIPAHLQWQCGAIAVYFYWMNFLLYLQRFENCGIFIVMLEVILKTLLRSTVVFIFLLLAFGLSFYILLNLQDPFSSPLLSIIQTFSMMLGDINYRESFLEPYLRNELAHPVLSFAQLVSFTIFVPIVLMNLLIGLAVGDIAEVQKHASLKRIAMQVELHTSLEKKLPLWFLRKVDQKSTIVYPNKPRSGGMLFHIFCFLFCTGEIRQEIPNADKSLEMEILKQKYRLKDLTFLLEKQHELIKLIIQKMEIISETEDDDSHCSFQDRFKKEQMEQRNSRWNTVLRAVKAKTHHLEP
Description: (§1) For Ca^2+-imaging, 1 μg of plasmid DNA containing hTRPA1 in pcDNA3 in OPTI-MEM medium (Life Technologies) was transfected into HEK293T cells using Lipofectamine Plus Reagent (Life Technologies). Following incubation for 3–4 h, cells were reseeded on coverslips and incubated further at 37 °C in 5 % CO2.
(§2) Ca^2+-imaging was performed 1 day after transfection. […] Cytosolic-free Ca^2+ concentrations in HEK293T cells were measured by dual-wavelength fura-2 (Molecular Probes, Invitrogen Corp.) microfluorometry with excitation at 340/380 nm and emission at 510 nm. The fura-2 ratio image was calculated and acquired using the IP-Lab imaging processing system (Scanalytics Inc, Fairfax, VA). Ionomycin was used to confirm cell viability in the vector-transfected cells.
In these experiments, changes in the fura-2 ratio (corresponding to cytosolic Ca^2+ concentrations) induced by the test compounds and menthol were compared because menthol, which activates hTRPA1, and the test compounds are members of the monoterpene family.
Data are presented as the mean ± standard error of the mean (SEM) (n = 27–67)

hTRPA1 [2] = target: T1, hTRPA1; settings: cited from earlier work
hTRPA1-Y812A = target: T2, hTRPA1-Y812A (Homo sapiens, UniProt O75762, Y812A); assay: Whole-cell patch-clamp: inhibition of AITC-activated current in the mutant channel; type: cell-based; settings: borneol 0.03, 0.3, 1 mM; camphor 0.03, 0.3, 3 mM; 1,8-cineole 1, 5, 10 mM; -60 mV; no extracellular Ca2+
T2 construct: Full-length hTRPA1 was obtained from Life Technologies (Carlsbad, CA); expressed in transfected cells; host or cells: HEK293T
T2 sequence (O75762 whole entry Y812A): as the sequence (O75762 whole entry) above, with Y812A counted along it
Description: (§3) Whole-cell patch-clamp recordings were performed 1 day after transfection. The standard bath solution was the same as that used in the Ca^2+-imaging experiments, and extracellular Ca^2+ was removed and 5 mM EGTA added for the recording of AITC-, menthol- and FFA-induced current responses. The pipette solution contained 140 mM KCl, 5 mM EGTA, and 10 mM HEPES, pH 7.4 (adjusted with KOH). Data from the whole-cell voltage-clamp recordings were sampled at 10 kHz and filtered at 5 kHz for analysis (Axon 200B amplifier with pCLAMP software; Axon Instruments, Sunnyvale, CA). The membrane potential was clamped at −60 mV for all conditions. In some experiments, voltage ramp-pulses from −100 to +100 mV (500 ms) were applied every 5 s. All experiments were performed at room temperature.
(§4) Data in all of the figures are shown as the mean ± standard error of the mean, and P values of <0.05 were considered to be significant. […] Dose-dependent curves were fit with a Hill equation.
(§5) To test this hypothesis, we investigated whether the serine and threonine residues are involved in the inhibitory effect of borneol. […] We searched for an involvement of other amino acids in borneol activity.

hTRPA1-S873V/T874L = target: T3, hTRPA1-S873V/T874L (Homo sapiens, UniProt O75762, S873V/T874L); assay: as above; type: cell-based; settings: borneol 0.03, 0.3, 1 mM; camphor 0.03, 0.3, 3 mM; 1,8-cineole 1, 5, 10 mM; -60 mV; no extracellular Ca2+
T3 construct: Full-length hTRPA1 was obtained from Life Technologies (Carlsbad, CA); expressed in transfected cells; host or cells: HEK293T
T3 sequence (O75762 whole entry S873V/T874L): as the sequence (O75762 whole entry) above, with S873V, T874L counted along it
Description: as §3, §4, §5

hTRPA1 [3] = target: T1, hTRPA1; assay: Whole-cell patch-clamp: activation of hTRPA1 current by test compounds; type: cell-based; settings: HEK293T cells expressing hTRPA1
Description: (§6) Human embryonic kidney (HEK) 293T cells were maintained in DMEM (WAKO Pure Chemical Industries Ltd.) supplemented with 10 % fetal bovine serum (Biowest SAS, Caille, France), 100 U/mL penicillin (Life Technologies), 100 μg/mL streptomycin (Life Technologies), and 2 mM L-glutamine (GlutaMAX; Life Technologies) at 37 °C in 5 % CO2. For Ca^2+-imaging, 1 μg of plasmid DNA containing hTRPA1 in pcDNA3 in OPTI-MEM medium (Life Technologies) was transfected into HEK293T cells using Lipofectamine Plus Reagent (Life Technologies). Following incubation for 3–4 h, cells were reseeded on coverslips and incubated further at 37 °C in 5 % CO2.
as §3
In order to confirm the effects of the above compounds, we performed patch-clamp experiments with HEK293T cells expressing hTRPA1.
Cells were held at −60 mV and ramp-pulses from −100 to +100 mV (500 ms) were administered every 5 s

[4] = test system: vector-transfected HEK293T cells; assay: Ca2+-imaging in vector-transfected cells (control); type: cell-based, human; settings: with or without menthol; cells responded normally to ionomycin 5 μM
Description: (§7) Ca^2+-imaging was performed 1 day after transfection. HEK293T cells on coverslips were mounted in an open chamber and superfused with a standard bath solution (140 mM NaCl, 5 mM KCl, 2 mM MgCl2, 2 mM CaCl2, 10 mM HEPES, and 10 mM glucose, pH 7.4). Cytosolic-free Ca^2+ concentrations in HEK293T cells were measured by dual-wavelength fura-2 (Molecular Probes, Invitrogen Corp.) microfluorometry with excitation at 340/380 nm and emission at 510 nm. The fura-2 ratio image was calculated and acquired using the IP-Lab imaging processing system (Scanalytics Inc, Fairfax, VA). Ionomycin was used to confirm cell viability in the vector-transfected cells.
Washing-out of the three compounds after menthol exposure led to small increases in the fura-2 ratio, which could be due to the loss of inhibition and resumption of hTRPA1 activity from residual menthol in the cell.
Supplementary file 12576_2013_289_MOESM1_ESM.jpg: Supplementary material 1 (JPEG 324 kb) Supplementary Figure 1. […] (n = 48-75)

hTRPA1 [5] = target: T1, hTRPA1; assay: Ca2+-imaging (fura-2): inhibition of menthol-induced cytosolic Ca2+ increase; type: cell-based; settings: menthol 1 mM; test compound 1 mM; HEK293T cells expressing hTRPA1
Description: as §1, §2
Data are presented as the mean ± SEM (n = 47–79)

hTRPA1 [6] = target: T1, hTRPA1; assay: Whole-cell patch-clamp: inhibition of agonist-induced hTRPA1 current; type: cell-based; settings: for IC50 / Inhibition of AITC-induced hTRPA1 current: AITC 20 μM; for IC50: patch-clamp, mean ± SEM, n = 5-10, Hill fit; for IC50 / Inhibition of AITC-induced hTRPA1 current / Inhibition of FFA-activated hTRPA1-mediated current / Inhibition of menthol-activated hTRPA1-mediated current: no extracellular Ca2+; for Inhibition of AITC-induced hTRPA1 current / Inhibition of FFA-activated hTRPA1-mediated current / Inhibition of menthol-activated hTRPA1-mediated current: test compound 1 mM, -60 mV; for Inhibition of FFA-activated hTRPA1-mediated current: FFA 100 μM; for Inhibition of menthol-activated hTRPA1-mediated current: menthol 1 mM; for Comparison of inhibitory effects on hTRPA1 activity between optical isomers of borneol: AITC 20 μM-induced current (ESM Fig. 2)
Description: as §6, §3, §4
The current response was measured in the absence of extracellular Ca^2+ to minimize desensitization. […] The dose-dependency of the inhibitory effects of the three compounds on hTRPA1 was then examined using the patch-clamp method. […] Commercially available borneol contains both optical isomers.

hTRPA1 Y812A mutant = target: T4, hTRPA1 Y812A mutant (Homo sapiens, UniProt O75762, Y812A); assay: Ca2+-imaging screen of tyrosine mutants in TM2 and TM3 of hTRPA1; type: cell-based; settings: data not shown
T4 construct: Full-length hTRPA1 was obtained from Life Technologies (Carlsbad, CA); expressed in transfected cells; host or cells: HEK293T
T4 sequence (O75762 whole entry Y812A): as the sequence (O75762 whole entry) above, with Y812A counted along it
Description: as §7
A mouse TRPA1 mutant in which serine and threonine residues located in the predicted inner side of TM5 were replaced with valine and leucine (S876V/T877L), respectively, was neither activated nor inhibited by menthol. […] To test this hypothesis, we investigated whether the serine and threonine residues are involved in the inhibitory effect of borneol. […] We searched for an involvement of other amino acids in borneol activity.

mTRPA1 = settings: camphor 1 mM; current increased upon washing-out; cited from earlier work
[7] = test compound 1 mM, held at -60 mV, ramp-pulses -100 to +100 mV

SMILES: CC(C)C12CCC(C)(CC1)O2 [1,4-cineole]
Effect on hTRPA1 (activation or inhibition) (hTRPA1 [2]): activate hTRPA1

SMILES: CC12CCC(CC1)C(C)(C)O2 [1,8-Cineole]
Effect on hTRPA1 (activation or inhibition) (hTRPA1 [2]): inhibit hTRPA1
Inhibitory effect on AITC-activated current of hTRPA1-Y812A compared with hTRPA1-WT (hTRPA1-Y812A): such differences between WT hTRPA1 and hTRPA1-Y812A were not observed
Inhibitory effect on AITC-activated current of hTRPA1-S873V/T874L compared with hTRPA1-WT (hTRPA1-S873V/T874L): no significant changes

SMILES: CC1(C)[C@@H]2CC[C@@]1(C)[C@](C)(O)C2 [2-Methylisoborneol]
Activation of whole-cell hTRPA1 current (hTRPA1 [3]; [7]): did not activate hTRPA1
Effect on fura-2 ratio in vector-transfected cells [4]: did not provide any effect; also recorded: No changes in the fura-2 ratio
Inhibition of the menthol-induced increase in fura-2 ratio (hTRPA1 [5]): almost completely blocked
IC50 (hTRPA1 [6]): 120 ± 30 µM
Inhibition of AITC-induced hTRPA1 current (hTRPA1 [6]): completely inhibited
Inhibition of FFA-activated hTRPA1-mediated current (hTRPA1 [6]): completely inhibited
Inhibition of menthol-activated hTRPA1-mediated current (hTRPA1 [6]): completely inhibited
Change in fura-2 ratio (340/380 nm) by test compound, normalized to the change by 1 mM menthol (hTRPA1 [1]): small changes in the fura-2 ratio

SMILES: CC1(C)[C@@H]2CC[C@@]1(C)[C@@H](O)C2 [(+)-borneol]
Comparison of inhibitory effects on hTRPA1 activity between optical isomers of borneol (hTRPA1 [6]): no difference in the inhibitory effects

SMILES: C=CCN=C=S [AITC, allyl isothiocyanate, reference compound]
Activation of whole-cell hTRPA1 current (hTRPA1 [3]; AITC 20 μM): robust current activation with outward rectification

SMILES: CC1CCC(C(C)C)C(O)C1 (centres unmarked) [menthol]
Effect on hTRPA1 (activation or inhibition) (hTRPA1 [2]): activate hTRPA1

Continued, in another order:

Change in fura-2 ratio (340/380 nm) by test compound, normalized to the change by 1 mM menthol (hTRPA1 [1]): activated hTRPA1
SMILES: CC12CCC(C1)C(C)(C)C2=O (single isomer, unassigned; (-)) [(−)-Fenchone]

Comparison of inhibitory effects on hTRPA1 activity between optical isomers of borneol (hTRPA1 [6]): no difference in the inhibitory effects
SMILES: CC1(C)[C@H]2CC[C@]1(C)[C@H](O)C2 [(−)-borneol]

Activation of whole-cell hTRPA1 current (hTRPA1 [3]; [7]): did not activate hTRPA1
Effect of borneol on the Y812A mutant in Ca2+-imaging (hTRPA1 Y812A mutant): reduced
Inhibition of the menthol-induced increase in fura-2 ratio (hTRPA1 [5]): almost completely blocked
IC50 (hTRPA1 [6]): 200 ± 60 µM
Inhibition of AITC-induced hTRPA1 current (hTRPA1 [6]): completely inhibited
Inhibition of FFA-activated hTRPA1-mediated current (hTRPA1 [6]): completely inhibited
Inhibition of menthol-activated hTRPA1-mediated current (hTRPA1 [6]): completely inhibited
Change in fura-2 ratio (340/380 nm) by test compound, normalized to the change by 1 mM menthol (hTRPA1 [1]): small changes in the fura-2 ratio
Inhibitory effect on AITC-activated current of hTRPA1-Y812A compared with hTRPA1-WT (hTRPA1-Y812A): significantly lower inhibitory effect
Inhibitory effect on AITC-activated current of hTRPA1-S873V/T874L compared with hTRPA1-WT (hTRPA1-S873V/T874L): significantly lower
SMILES: CC1(C)C2CCC1(C)C(O)C2 (centres unmarked) [Borneol]
Effect on fura-2 ratio in vector-transfected cells [4]: did not provide any effect; also recorded: No changes in the fura-2 ratio

Inhibition of AITC-induced hTRPA1 current (hTRPA1 [6]): partially inhibited
Inhibitory effect on AITC-activated current of hTRPA1-S873V/T874L compared with hTRPA1-WT (hTRPA1-S873V/T874L): no significant changes
SMILES: CC12CCC(CC1=O)C2(C)C (centres unmarked) [Camphor]
Effect on mTRPA1-mediated basal current (mTRPA1): inhibition of mTRPA1-mediated basal current
Effect on hTRPA1 (activation or inhibition) (hTRPA1 [2]): inhibit hTRPA1
Inhibitory effect on AITC-activated current of hTRPA1-Y812A compared with hTRPA1-WT (hTRPA1-Y812A): such differences between WT hTRPA1 and hTRPA1-Y812A were not observed

Activation of whole-cell hTRPA1 current (hTRPA1 [3]; [7]): did not activate hTRPA1
Inhibition of AITC-induced hTRPA1 current (hTRPA1 [6]): completely inhibited
Inhibition of FFA-activated hTRPA1-mediated current (hTRPA1 [6]): completely inhibited
Inhibition of menthol-activated hTRPA1-mediated current (hTRPA1 [6]): completely inhibited
SMILES: CC12CCC(C1)C(C)(C)C2O (centres unmarked) [Fenchyl alcohol]

Activation of whole-cell hTRPA1 current (hTRPA1 [3]; [7]): did not activate hTRPA1
Inhibition of the menthol-induced increase in fura-2 ratio (hTRPA1 [5]): did not inhibit
Change in fura-2 ratio (340/380 nm) by test compound, normalized to the change by 1 mM menthol (hTRPA1 [1]): small changes in the fura-2 ratio
SMILES: O=C1CC2CC[C@H]1C2 [Norcamphor]
Effect on fura-2 ratio in vector-transfected cells [4]: did not provide any effect; also recorded: No changes in the fura-2 ratio
